Source: US8765819B2, “Composition comprising benzoic acid in combination with organic acid preservatives as active ingredients and the use thereof” (priority 2009, dated 2014)

Key:
[1] = system: Candida strains (clinical isolates from patients suffering from Candidal vaginitis); test: Inhibition of Candida growth in broth pH 4.5 (turbidity after 72 hours); format: cell-based
Text: 1. […] Unless otherwise illustrated, the solutions in the experiments are all aqueous solutions. 2. Experimental Method: (1) Experimental Materials:
a) Experimental strains: 11 Candida strains, all of which were screened from the clinical isolates from patients suffering from Candidal vaginitis, and were capable of growing in broth comprising 0.025% (w/v) sodium benzoate.
b) Broth: 1% yeast extract powder, 9% sucrose, 0.025% Manganese sulfate (MnSO4.4H2O), 0.058% Magnesium sulphate (MgSO4.7H2O), and 0.9% lactic acid, wherein the pH value was adjusted to 4.5 and the broth was sterilized for use;
(2) Experimental Grouping:
The requirements for aseptic technique were strictly followed to prepare the following groups of sterile test tubes: • a) sodium benzoate group: a test tube containing 5 ml broth, to which 0.025% (w/v) sodium benzoate was added; • b) sodium benzoate+sodium dehydroacetate group: 6 test tubes each containing 5 ml broth, wherein 0.0025% (w/v), 0.005% (w/v), and 0.01% (w/v) sodium dehydroacetate were added to three tubes, respectively; 0.025% (w/v) sodium benzoate was added to each of the rest 3 tubes, and then 0.0025% (w/v), 0.005% (w/v), 0.01% (w/v) sodium dehydroacetate were added to them, respectively; • c) sodium benzoate+sodium propionate group: 6 test tubes each containing 5 ml broth, wherein 0.0625% (w/v), 0.125% (w/v), and 0.25% (w/v) sodium propionate were added to three tubes, respectively; 0.025% (w/v) sodium benzoate was added to each of the rest 3 tubes, and then 0.0625% (w/v), 0.125% (w/v), and 0.25% (w/v) sodium propionate were added to them, respectively; • d) sodium benzoate+potassium sorbate group: 6 test tubes each containing 5 ml broth, wherein 0.00625% (w/v), 0.0125% (w/v), and 0.025% (w/v) potassium sorbate were added to 3 tubes, respectively; 0.025% (w/v) sodium benzoate was added to each of the rest 3 tubes, and then 0.00625% (w/v), 0.0125% (w/v), and 0.025% (w/v) potassium sorbate were added to them, respectively; • e) sodium benzoate+Ethylparaben: 6 test tubes each containing 5 ml broth, wherein 0.0125% (w/v), 0.025% (w/v), and 0.05% (w/v) Ethylparaben were added to 3 tubes, respectively; 0.025% (w/v) sodium benzoate was added to each of the rest 3 tubes, and then 0.0125% (w/v), 0.025% (w/v), and 0.05% (w/v) Ethylparaben were added to them, respectively; • f) Positive control: a broth-containing test tube with Candida but without sodium benzoate, sodium dehydroacetate, sodium propionate, sorbic acid, or Ethylparaben. • g) Negative control: a broth-containing test tube without Candida, sodium benzoate, sodium dehydroacetate, sodium propionate, sorbic acid, or Ethylparaben; (3) Experimental Methods:
The Candidal suspensions were prepared under stringent aseptic manipulation techniques. The colonies of various Candidal strains were diluted with saline, respectively. The turbidity was adjusted with a turbiditor to 0.5M (about 10^8CFU/ml), and then 1 ml 0.5M bacterial solution was added to 9 ml broth and was 10 times diluted, so that each Candidal suspension comprised Candidal organisms at 10^7CFU/ml.
Under stringent aseptic manipulation techniques, 100 μl bacterial solution thus prepared was added to each of the aforesaid a˜f test tubes and the positive control tube, and no bacterial solution was added to the negative control tube g.
These tubes were incubated in a biochemical incubator at 37.5° C. for 72 hours. The turbidity of the test tubes were observed and recorded.

[2] = system: Candidal vaginitis; test: Therapeutic effect of gel compositions on Candidal vaginitis (clinical cases); format: in vivo, patients; conditions: cases/cases of group
Text: 1. Experimental Object: observing the therapeutic effect of the compositions comprising the combination of sodium benzoate with sodium propionate or sorbic acid. Unless otherwise illustrated, the solutions in the experiments are all aqueous solutions.
• Group I: 0.125% (w/v) sodium propionate; • Group II: i.e., the composition of Example 9 comprising 0.1% (w/v) sodium benzoate+0.125% (w/v) sodium propionate; • Group III: 0.0125% (w/v) sorbic acid; • Group IV: i.e., the composition of Example 7 comprising 0.1% (w/v) sodium benzoate+0.0125% (w/v) sorbic acid; • Group V: 0.1% (w/v) sodium benzoate; • Group VI: i.e., the composition of Example 5 comprising 0.1% sodium benzoate+0.0125% sodium dehydroacetate. 3. Experimental cases: cases of Candidal vaginitis, 20 cases per group, enrolling according to following criteria: recurrent symptoms such as vulvovaginal pruritus and vulvovaginal burning pain, and increased leucorrhea, optionally with white bean curd slag-like clots, pH value of vaginal secretion <4.5, vaginal bacteria were dominated by large Gram-positive rods, and Candida spores and/or hypha were found. 4. […] 5. […] 6. Observed results: observing the changes in vulvovaginal pruritus, vulvovaginal burning pain and leucorrhea nature, the pH value of vaginal secretion, observing the Nugent scores of the vaginal flora, whether Candida grew or not. 7. […] 8.

CCC(=O)[O-].[Na+] [0.125% sodium propionate, sodium propionate]
Candida growth, Strain 1 ([1]; Strain 1, 37.5° C.): +
Candida growth, Strain 2 ([1]; Strain 2, 37.5° C.): +
Candida growth, Strain 3 ([1]; Strain 3, 37.5° C.): +
Candida growth, Strain 4 ([1]; Strain 4, 37.5° C.): +
Candida growth, Strain 5 ([1]; Strain 5, 37.5° C.): −
Candida growth, Strain 6 ([1]; Strain 6, 37.5° C.): +
Candida growth, Strain 7 ([1]; Strain 7, 37.5° C.): +
Candida growth, Strain 8 ([1]; Strain 8, 37.5° C.): +
Candida growth, Strain 9 ([1]; Strain 9, 37.5° C.): −
Candida growth, Strain 10 ([1]; Strain 10, 37.5° C.): +
Candida growth, Strain 11 ([1]; Strain 11, 37.5° C.): −
Candida (detection rate) ([2]; Day 1): 16/20
pH 3.8~4.1 (vaginal secretion) ([2]; Day 1): 12/20
pH 4.2~4.5 (vaginal secretion) ([2]; Day 1): 5/20
pH <3.8 (vaginal secretion) ([2]; Day 1): 3/20
symptom alleviated/eliminated ([2]; Day 1): 7/20
Candida (detection rate) ([2]; Day 2): 13/20
pH 3.8~4.1 (vaginal secretion) ([2]; Day 2): 11/20
pH 4.2~4.5 (vaginal secretion) ([2]; Day 2): 6/20
pH <3.8 (vaginal secretion) ([2]; Day 2): 3/20
symptom alleviated/eliminated ([2]; Day 2): 9/20
Candida (detection rate) ([2]; Day 3): 10/20
pH 3.8~4.1 (vaginal secretion) ([2]; Day 3): 9/20
pH 4.2~4.5 (vaginal secretion) ([2]; Day 3): 9/20
pH <3.8 (vaginal secretion) ([2]; Day 3): 2/20
symptom alleviated/eliminated ([2]; Day 3): 14/20
Candida (detection rate) ([2]; Day 4): 12/20
pH 3.8~4.1 (vaginal secretion) ([2]; Day 4): 10/20
pH 4.2~4.5 (vaginal secretion) ([2]; Day 4): 9/20
pH <3.8 (vaginal secretion) ([2]; Day 4): 1/20
symptom alleviated/eliminated ([2]; Day 4): 13/20
Candida (detection rate) ([2]; Day 5): 11/20
pH 3.8~4.1 (vaginal secretion) ([2]; Day 5): 10/20
pH 4.2~4.5 (vaginal secretion) ([2]; Day 5): 8/20
pH <3.8 (vaginal secretion) ([2]; Day 5): 2/20
symptom alleviated/eliminated ([2]; Day 5): 13/20
Candida (detection rate) ([2]; before administration): 20/20
pH 3.8~4.1 (vaginal secretion) ([2]; before administration): 9/20
pH 4.2~4.5 (vaginal secretion) ([2]; before administration): 5/20
pH <3.8 (vaginal secretion) ([2]; before administration): 6/20
symptom alleviated/eliminated ([2]; before administration): 0/20

C/C=C/C=C/C(=O)O [0.0125% sorbic acid, sorbic acid]
Candida (detection rate) ([2]; Day 1): 15/20
pH 3.8~4.1 (vaginal secretion) ([2]; Day 1): 13/20
pH 4.2~4.5 (vaginal secretion) ([2]; Day 1): 6/20
pH <3.8 (vaginal secretion) ([2]; Day 1): 1/20
symptom alleviated/eliminated ([2]; Day 1): 6/20
Candida (detection rate) ([2]; Day 2): 15/20
pH 3.8~4.1 (vaginal secretion) ([2]; Day 2): 11/20
pH 4.2~4.5 (vaginal secretion) ([2]; Day 2): 7/20
pH <3.8 (vaginal secretion) ([2]; Day 2): 2/20
symptom alleviated/eliminated ([2]; Day 2): 12/20
Candida (detection rate) ([2]; Day 3): 13/20
pH 3.8~4.1 (vaginal secretion) ([2]; Day 3): 10/20
pH 4.2~4.5 (vaginal secretion) ([2]; Day 3): 8/20
pH <3.8 (vaginal secretion) ([2]; Day 3): 2/20
symptom alleviated/eliminated ([2]; Day 3): 11/20
Candida (detection rate) ([2]; Day 4): 14/20
pH 3.8~4.1 (vaginal secretion) ([2]; Day 4): 11/20
pH 4.2~4.5 (vaginal secretion) ([2]; Day 4): 8/20
pH <3.8 (vaginal secretion) ([2]; Day 4): 1/20
symptom alleviated/eliminated ([2]; Day 4): 13/20
Candida (detection rate) ([2]; Day 5): 13/20
pH 3.8~4.1 (vaginal secretion) ([2]; Day 5): 11/20
pH 4.2~4.5 (vaginal secretion) ([2]; Day 5): 7/20
pH <3.8 (vaginal secretion) ([2]; Day 5): 2/20
symptom alleviated/eliminated ([2]; Day 5): 12/20
Candida (detection rate) ([2]; before administration): 20/20
pH 3.8~4.1 (vaginal secretion) ([2]; before administration): 9/20
pH 4.2~4.5 (vaginal secretion) ([2]; before administration): 6/20
pH <3.8 (vaginal secretion) ([2]; before administration): 5/20
symptom alleviated/eliminated ([2]; before administration): 0/20

O=C([O-])c1ccccc1.[Na+] [0.1% sodium benzoate, sodium benzoate]
Candida (detection rate) ([2]; Day 1): 15/20
pH 3.8~4.1 (vaginal secretion) ([2]; Day 1): 12/20
pH 4.2~4.5 (vaginal secretion) ([2]; Day 1): 6/20
pH <3.8 (vaginal secretion) ([2]; Day 1): 2/20
symptom alleviated/eliminated ([2]; Day 1): 7/20
Candida (detection rate) ([2]; Day 2): 13/20
pH 3.8~4.1 (vaginal secretion) ([2]; Day 2): 10/20
pH 4.2~4.5 (vaginal secretion) ([2]; Day 2): 9/20
pH <3.8 (vaginal secretion) ([2]; Day 2): 1/20
symptom alleviated/eliminated ([2]; Day 2): 9/20
Candida (detection rate) ([2]; Day 3): 9/20
pH 3.8~4.1 (vaginal secretion) ([2]; Day 3): 9/20
pH 4.2~4.5 (vaginal secretion) ([2]; Day 3): 9/20
pH <3.8 (vaginal secretion) ([2]; Day 3): 2/20
symptom alleviated/eliminated ([2]; Day 3): 14/20
Candida (detection rate) ([2]; Day 4): 5/20
pH 3.8~4.1 (vaginal secretion) ([2]; Day 4): 10/20
pH 4.2~4.5 (vaginal secretion) ([2]; Day 4): 9/20
pH <3.8 (vaginal secretion) ([2]; Day 4): 1/20
symptom alleviated/eliminated ([2]; Day 4): 15/20
Candida (detection rate) ([2]; Day 5): 6/20
pH 3.8~4.1 (vaginal secretion) ([2]; Day 5): 9/20
pH 4.2~4.5 (vaginal secretion) ([2]; Day 5): 10/20
pH <3.8 (vaginal secretion) ([2]; Day 5): 1/20
symptom alleviated/eliminated ([2]; Day 5): 15/20
Candida (detection rate) ([2]; before administration): 20/20
pH 3.8~4.1 (vaginal secretion) ([2]; before administration): 10/20
pH 4.2~4.5 (vaginal secretion) ([2]; before administration): 4/20
pH <3.8 (vaginal secretion) ([2]; before administration): 6/20
symptom alleviated/eliminated ([2]; before administration): 0/20
